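A five-concentration, 48-hour dose response in 96-well plates underlies each endpoint, interpolated linearly between surrounding concentrations. At the GI50, growth is halved.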 The source made the active and inactive calls. Rule as the data show it: active = GI50 up to about 1.1 µM and inactive = higher.
Assays:
Test in all cases: DTP human tumour cell line panel, 48 h
ACHN = system: ACHN
SK-OV-3 = system: SK-OV-3
RXF 393 = system: RXF 393
EKVX = system: EKVX
NCI-H23 = system: NCI-H23
COLO 205 = system: COLO 205
MOLT-4 = system: MOLT-4
UACC-62 = system: UACC-62
SK-MEL-5 = system: SK-MEL-5
UACC-257 = system: UACC-257
SF-268 = system: SF-268
RPMI-8226 = system: RPMI-8226
786-0 = system: 786-0
NCI-H522 = system: NCI-H522
HOP-62 = system: HOP-62
A549 = system: A549
HT-29 = system: HT-29

Measured: GI50

CCOC(=O)C(C)c1c(C(=O)c2ccc(C)nc2)c2ccccc2n1C (stereo unspecified)
inactive: ACHN > 100 µM | SK-OV-3 > 100 µM | RXF 393 > 100 µM | EKVX > 100 µM | NCI-H23 > 100 µM | COLO 205 > 100 µM | MOLT-4 > 100 µM | UACC-62 > 100 µM | SK-MEL-5 > 100 µM | UACC-257 > 100 µM | SF-268 > 100 µM | RPMI-8226 72.1 µM | 786-0 > 100 µM | NCI-H522 79.6 µM | HOP-62 > 100 µM | A549 > 100 µM | HT-29 > 100 µM

CN(C)CCSc1cccc(-c2cc(-c3cccc(SCCN(C)C)c3)nc(SCCN(C)C)n2)c1
inactive: ACHN 5.77 µM | SK-OV-3 30.1 µM | RXF 393 1.35 µM | EKVX 2.06 µM | NCI-H23 4.49 µM | MOLT-4 1.63 µM | UACC-62 17.5 µM | SK-MEL-5 1.55 µM | UACC-257 1.59 µM | 786-0 7.85 µM | NCI-H522 1.61 µM | HOP-62 16.3 µM | A549 1.71 µM | HT-29 1.55 µM

CN(C)/N=C(/c1nc2ccc([N+](=O)[O-])cc2nc1O)C(O)c1ccco1 (stereo unspecified)
inactive: ACHN 35.4 µM | SK-OV-3 > 100 µM | RXF 393 > 100 µM | NCI-H23 > 100 µM | COLO 205 > 100 µM | MOLT-4 > 100 µM | UACC-62 22.8 µM | SK-MEL-5 70.1 µM | UACC-257 > 100 µM | SF-268 84.9 µM | RPMI-8226 > 100 µM | 786-0 > 100 µM | NCI-H522 8.57 µM | HOP-62 72.1 µM | A549 > 100 µM | HT-29 > 100 µM

C#C[C@]1(O)CCC2C3CCc4cc(Oc5nc(F)nc(-c6c7cc8ccccc8cc7c7n6CCS7)n5)ccc4C3CCC21C (stereo partly specified)
inactive: ACHN > 100 µM | SK-OV-3 45.4 µM | RXF 393 28.1 µM | EKVX 11.4 µM | NCI-H23 54.1 µM | COLO 205 20.6 µM | MOLT-4 49.8 µM | UACC-62 20.8 µM | SK-MEL-5 25.4 µM | UACC-257 77.6 µM | SF-268 56.9 µM | RPMI-8226 41.5 µM | 786-0 51.8 µM | NCI-H522 21.3 µM | HOP-62 43.3 µM | A549 41.3 µM | HT-29 26.2 µM

O=C(Cl)c1cc([N+](=O)[O-])cc([N+](=O)[O-])c1
inactive: ACHN > 100 µM | SK-OV-3 > 100 µM | EKVX > 100 µM | NCI-H23 > 100 µM | COLO 205 > 100 µM | MOLT-4 > 100 µM | UACC-62 > 100 µM | SK-MEL-5 > 100 µM | UACC-257 > 100 µM | SF-268 > 100 µM | RPMI-8226 > 100 µM | 786-0 > 100 µM | NCI-H522 > 100 µM | HOP-62 > 100 µM | A549 > 100 µM | HT-29 > 100 µM

CCNC(=O)C(O)C1(O)CCC2[C@@H]3CCC4=CC(=O)C=C[C@]4(C)C3[C@@H](O)C[C@@]21C (stereo partly specified)
inactive: ACHN > 100 µM | SK-OV-3 > 100 µM | RXF 393 > 100 µM | EKVX > 100 µM | NCI-H23 > 100 µM | COLO 205 > 100 µM | MOLT-4 52.1 µM | UACC-62 > 100 µM | UACC-257 > 100 µM | SF-268 > 49.4 µM | RPMI-8226 22.4 µM | 786-0 > 100 µM | NCI-H522 > 100 µM | HOP-62 > 100 µM | A549 86.9 µM | HT-29 > 100 µM

From ChEMBL document CHEMBL1201862, “PubChem BioAssay data set” (2004)
